Data from US12565497B2 (Hoffmann-La Roche Inc., priority 2020, dated 2026).

Biological target: Recombinant human Mat2a (Homo sapiens (Human), UniProt P31153)
Assay: Determination of Mat2A activity (384 well absorbance-based assay, Biomol Green)
Format: biochemical
Details: 12.5 nM Mat2A, 100 μM ATP and Methionine, 2% DMSO, 120 minutes at RT, absorbance at 635 nm; read-out: MAT2A_LEC IC50 (uM) (Num)
Procedure: Determination of Mat2A Activity
Measurement of Mat2A inhibition is performed in 384 well format absorbance-based assay. Recombinant human Mat2a (12.5 nM) and serial diluted compounds in DMSO (range of concentrations from 10 μM to 508 pM) or controls (DMSO) are incubated for 15 minutes at room temperature (RT) in assay buffer containing 50 mM HEPES pH 7.5, 50 mM KCl, 50 mM MgCl2, 0.01%Tween 20 and 10 mM DTT. The reaction is initiated by the addition of the combined substrates ATP and Methionine, each at a final concentration of 100 μM. Final assay condition are 12.5 nM Mat2A, 100 μM ATP and Methionine Substrates and 2% DMSO. After 120 minutes of incubation at RT, the reaction is stopped by the addition of Biomol Green. The absorbance signal is measured at λ=635 nm with a multiplate reader (BMG Pherastar reader or equivalent) after 30 min of equilibration at RT.

Recombinant human Mat2a, sequence (P31153 whole entry): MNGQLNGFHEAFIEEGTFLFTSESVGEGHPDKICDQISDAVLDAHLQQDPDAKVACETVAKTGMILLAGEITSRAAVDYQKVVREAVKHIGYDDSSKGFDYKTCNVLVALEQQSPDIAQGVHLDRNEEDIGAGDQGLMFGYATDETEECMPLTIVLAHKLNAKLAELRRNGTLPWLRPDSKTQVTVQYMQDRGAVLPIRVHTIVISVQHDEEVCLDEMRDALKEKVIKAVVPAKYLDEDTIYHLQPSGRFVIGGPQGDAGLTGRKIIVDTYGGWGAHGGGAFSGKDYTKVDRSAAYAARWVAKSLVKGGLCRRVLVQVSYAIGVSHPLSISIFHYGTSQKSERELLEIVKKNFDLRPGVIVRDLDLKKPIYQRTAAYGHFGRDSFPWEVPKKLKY

| SMILES | IC50 |
| --- | --- |
| Cc1cc(-n2c(=O)c(C)cc3[nH]nc(C4CC4)c32)ccc1S(C)(=O)=O [Example 80, 3-cyclopropyl-6-methyl-4-(3-methyl-4-methylsulfonyl-phenyl)-1H-pyrazolo[4,3-b]pyridin-5-one] | 0.031 µM |
| Cc1cc(-n2c(=O)c(C3CC3)cc3[nH]nc(C4CC4)c32)ccc1S(C)(=O)=O [Example 81, 3,6-dicyclopropyl-4-(3-methyl-4-methylsulfonyl-phenyl)-1H-pyrazolo[4,3-b]pyridin-5-one] | 0.079 µM |
| Cc1cc(-c2c(OC(F)F)ncc3[nH]nc(C4CC4)c23)ccc1S(C)(=O)=O [Example 82, 3-cyclopropyl-5-(difluoromethoxy)-4-(3-methyl-4-(methylsulfonyl)phenyl)-1H-pyrazolo[3,4-c]pyridine] | < 0.013 µM |
| Cc1cc(-c2c(C(=O)N(C)C)ncc3[nH]nc(C4CC4)c23)ccc1S(C)(=O)=O [Example 83, 3-cyclopropyl-N,N-dimethyl-4-(3-methyl-4-(methylsulfonyl)phenyl)-1H-pyrazolo[3,4-c]pyridine-5-carboxamide] | 0.5 µM |
| Cc1cc(-c2c(C3CC3)ncc3[nH]nc(C4CC4)c23)ccc1S(C)(=O)=O [Example 85] | 0.02 µM |
| CNC(=O)c1c(F)cc2[nH]nc(C3CC3)c2c1-c1ccc(S(C)(=O)=O)c(C)c1 [Example 88, 3-cyclopropyl-6-fluoro-N-methyl-4-(3-methyl-4-(methylsulfonyl)phenyl)-1H-indazole-5-carboxamide] | < 0.013 µM |
| CNC(=O)c1ncc2[nH]nc(C3CC3)c2c1-c1ccc(S(=O)(=O)C2CC2)c(C)c1 [Example 89, 3-cyclopropyl-4-(4-cyclopropylsulfonyl-3-methyl-phenyl)-N-methyl-1H-pyrazolo[3,4-c]pyridine-5-carboxamide] | 0.035 µM |
| Cc1cc(-c2c(C#N)c(Cl)cc3[nH]nc(C4CC4)c23)ccc1S(C)(=O)=O [Example 90, 6-chloro-3-cyclopropyl-4-(3-methyl-4-methylsulfonylphenyl)-1H-indazole-5-carbonitrile] | < 0.013 µM |
| Cc1cc(-n2c(=O)ccc3[nH]nc(OC(F)(F)F)c32)ccc1S(C)(=O)=O [Example 91, 4-(3-methyl-4-methylsulfonyl-phenyl)-3-(trifluoromethoxy)-1H-pyrazolo[4,3-b]pyridin-5-one] | < 0.013 µM |
| Cc1cc(-n2c(=O)ccc3[nH]cc(C4CC4)c32)ccc1S(C)(=O)=O [Example 92, 3-cyclopropyl-4-(3-methyl-4-methylsulfonyl-phenyl)-1H-pyrrolo[3,2-b]pyridin-5-one] | 0.029 µM |
| Cc1cc(-c2c(S(C)(=O)=O)ccc3[nH]nc(OC(F)(F)F)c23)ccc1S(C)(=O)=O [Example 93, 4-(3-methyl-4-(methylsulfonyl)phenyl)-5-(methylsulfonyl)-3-(trifluoromethoxy)-1H-indazole] | < 0.013 µM |
| CS(=O)(=O)c1ccc(-c2c(S(C)(=O)=O)ccc3[nH]nc(C4CC4)c23)cc1C(F)F [Example 94, 3-cyclopropyl-4-(3-(difluoromethyl)-4-(methylsulfonyl)phenyl)-5-(methylsulfonyl)-1H-indazole] | 0.05 µM |
| CNC(=O)c1ncc2[nH]nc(C3CC3)c2c1-c1cc(C)c(S(=O)(=O)C2CC2)cc1F [Example 96, 3-cyclopropyl-4-(4-cyclopropylsulfonyl-2-fluoro-5-methyl-phenyl)-N-methyl-1H-pyrazolo[3,4-c]pyridine-5-carboxamide] | < 0.013 µM |
| CNC(=O)c1ncc2[nH]nc(C3CC3)c2c1-c1cc(C)c(S(C)(=O)=O)cc1F [Example 97, 3-cyclopropyl-4-(2-fluoro-5-methyl-4-methylsulfonyl-phenyl)-N-methyl-1H-pyrazolo[3,4-c]pyridine-5-carboxamide] | < 0.013 µM |
| Cc1cc(-c2c(C(N)=O)ncc3[nH]nc(OC(F)F)c23)ccc1S(C)(=O)=O [Example 98, 3-(difluoromethoxy)-4-(3-methyl-4-methylsulfonyl-phenyl)-1H-pyrazolo[3,4-c]pyridine-5-carboxamide] | < 0.013 µM |
| CC(=O)NCCOCCNc1cnc(-c2ccc(S(C)(=O)=O)c(C)c2)c2c(C3CC3)n[nH]c12 [Example 99, N-[2-[2-[[3-cyclopropyl-4-(3-methyl-4-methylsulfonyl-phenyl)-1H-pyrazolo[4,3-c]pyridin-7-yl]amino]ethoxy]ethyl]acetamide] | 0.07 µM |
| CC(=O)NCCCNc1cnc(-c2ccc(S(C)(=O)=O)c(C)c2)c2c(C3CC3)n[nH]c12 [Example 100, N-[3-[[3-cyclopropyl-4-(3-methyl-4-methylsulfonyl-phenyl)-1H-pyrazolo[4,3-c]pyridin-7-yl]amino]propyl]acetamide] | 0.03 µM |

| SMILES | IC50 |
| --- | --- |
| Cc1cc(-c2ncc(NCCOCCN)c3[nH]nc(C4CC4)c23)ccc1S(C)(=O)=O [Example 101, N-[2-(2-aminoethoxy)ethyl]-3-cyclopropyl-4-(3-methyl-4-methylsulfonyl-phenyl)-1H-pyrazolo[4,3-c]pyridin-7-amine] | 0.14 µM |
| Cc1cc(-c2ncc(NCCCCN)c3[nH]nc(C4CC4)c23)ccc1S(C)(=O)=O [Example 102, N′-[3-cyclopropyl-4-(3-methyl-4-methylsulfonyl-phenyl)-1H-pyrazolo[4,3-c]pyridin-7-yl]butane-1,4-diamine] | 0.06 µM |
| CC(=O)NCCCCNc1cnc(-c2ccc(S(C)(=O)=O)c(C)c2)c2c(C3CC3)n[nH]c12 [Example 103, N-[4-[[3-cyclopropyl-4-(3-methyl-4-methylsulfonyl-phenyl)-1H-pyrazolo[4,3-c]pyridin-7-yl]amino]butyl]acetamide] | 0.04 µM |
| Cc1cc(-c2ncc(NCCCN)c3[nH]nc(C4CC4)c23)ccc1S(C)(=O)=O [Example 104, N′-[3-cyclopropyl-4-(3-methyl-4-methylsulfonyl-phenyl)-1H-pyrazolo[4,3-c]pyridin-7-yl]propane-1,3-diamine] | 0.04 µM |
| Cc1cc(-c2c(C#N)ncc3[nH]nc(OC(F)F)c23)ccc1S(=O)(=O)C(F)F [Example 105, 3-(difluoromethoxy)-4-(4-((difluoromethyl)sulfonyl)-3-methylphenyl)-1H-pyrazolo[3,4-c]pyridine-5-carbonitrile] | < 0.013 µM |
| Cc1cc(-c2c(C(N)=O)ncc3[nH]nc(OC(F)F)c23)ccc1S(=O)(=O)C(F)F [Example 106, 3-(difluoromethoxy)-4-[4-(difluoromethylsulfonyl)-3-methyl-phenyl]-1H-pyrazolo[3,4-c]pyridine-5-carboxamide] | < 0.013 µM |
| Cc1cc(-c2c(C(=O)NC3COC3)ncc3[nH]nc(OC(F)F)c23)ccc1S(=O)(=O)C(F)F [Example 107, 3-(difluoromethoxy)-4-[4-(difluoromethylsulfonyl)-3-methyl-phenyl]-N-(oxetan-3-yl)-1H-pyrazolo[3,4-c]pyridine-5-carboxamide] | 0.013 µM |
| CNC(=O)c1ncc2[nH]nc(OC(F)F)c2c1-c1ccc(S(=O)(=O)C(F)F)c(C)c1 [Example 108] | 0.015 µM |
| CNC(=O)c1ncc2[nH]nc(OC(F)F)c2c1-c1ccc(S(C)(=O)=O)c(C)c1 [Example 110, 3-(difluoromethoxy)-N-methyl-4-(3-methyl-4-methylsulfonyl-phenyl)-1H-pyrazolo[3,4-c]pyridine-5-carboxamide] | < 0.013 µM |
| Cc1cc(-c2c(S(=O)(=O)C3COC3)ccc3[nH]nc(OC(F)F)c23)ccc1S(C)(=O)=O [Example 111, 3-(difluoromethoxy)-4-(3-methyl-4-methylsulfonyl-phenyl)-5-(oxetan-3-ylsulfonyl)-1H-indazole] | < 0.013 µM |
| CN=S(C)(=O)c1ccc2[nH]nc(C3CC3)c2c1-c1ccc(S(C)(=O)=O)c(C)c1 (stereo not drawn) [Example 113, [3-cyclopropyl-4-(3-methyl-4-methylsulfonyl-phenyl)-1H-indazol-5-yl]-methyl-methylimino-oxo-λ^6-sulfane] | 0.31 µM |
| Cc1cc(-c2c(S(=O)(=O)N(C)C)ccc3[nH]nc(C4CC4)c23)ccc1S(C)(=O)=O [Example 114, 3-cyclopropyl-N,N-dimethyl-4-(3-methyl-4-methylsulfonyl-phenyl)-1H-indazole-5-sulfonamide] | 0.03 µM |
| CNS(=O)(=O)c1ccc2[nH]nc(C3CC3)c2c1-c1ccc(S(C)(=O)=O)c(C)c1 [Example 115, 3-cyclopropyl-N-methyl-4-(3-methyl-4-methylsulfonyl-phenyl)-1H-indazole-5-sulfonamide] | 0.03 µM |
| Cc1cc(-c2c(C(N)=O)ncc3[nH]nc(OC(F)F)c23)ccc1S(=O)(=O)C1CC1 [Example 116, 4-(4-cyclopropylsulfonyl-3-methyl-phenyl)-3-(difluoromethoxy)-1H-pyrazolo[3,4-c]pyridine-5-carboxamide] | < 0.013 µM |
| Cc1cc(-c2c(S(=O)(=O)C3CC3)ccc3[nH]nc(OC(F)F)c23)ccc1S(C)(=O)=O [Example 118, 5-cyclopropylsulfonyl-3-(difluoromethoxy)-4-(3-methyl-4-methylsulfonyl-phenyl)-1H-indazole] | < 0.013 µM |
| Cc1cc(-c2c(S(C)(=O)=O)ccc3[nH]nc(OC(F)F)c23)c(F)cc1S(C)(=O)=O [Example 119, 3-(difluoromethoxy)-4-(2-fluoro-5-methyl-4-methylsulfonyl-phenyl)-5-methylsulfonyl-1H-indazole] | 0.02 µM |
